The results in this text go back to article PMC5917010, “Structural basis for GPR40 allosteric agonism and incretin stimulation” (Nature Communications, 2018).

One test deals with wild type ICR mice. In words: Intraperitoneal glucose tolerance test (IPGTT) in wild type ICR mice. Conditions: various oral doses. In kind it is in vivo, mouse. The protocol:
Nine to ten week old male ICR mice (Envigo) and GPR40 KO mice (Taconic) were used. The day before an IPGTT (~1600), animals were fasted in clean cages. The following morning (~0800), animals were randomized on fasting glucose and body weight (N = 6 per group). Mice were orally administered a test article or vehicle 60 min prior to an intraperitoneal (IP) injection of glucose (2g/kg). Blood glucose levels were determined by a glucometer from tail bleeds taken at 0, 15, 30, 60, and 120 min after the glucose challenge. An average of two readings were reported at each time point. Also, blood samples were collected into serum tubes at 0, 3, 6, and 15 min post glucose injection for insulin measurement. Serum tubes were centrifuged at 3000g for 5 min and serum transferred into 96-well plates for insulin analysis by a Mesoscale rat/mouse insulin assay.

The target in another test is hGLUCR (Homo sapiens, UniProt P47871). In words: hGLUCR binding.
Chain of hGLUCR (P47871 26-477): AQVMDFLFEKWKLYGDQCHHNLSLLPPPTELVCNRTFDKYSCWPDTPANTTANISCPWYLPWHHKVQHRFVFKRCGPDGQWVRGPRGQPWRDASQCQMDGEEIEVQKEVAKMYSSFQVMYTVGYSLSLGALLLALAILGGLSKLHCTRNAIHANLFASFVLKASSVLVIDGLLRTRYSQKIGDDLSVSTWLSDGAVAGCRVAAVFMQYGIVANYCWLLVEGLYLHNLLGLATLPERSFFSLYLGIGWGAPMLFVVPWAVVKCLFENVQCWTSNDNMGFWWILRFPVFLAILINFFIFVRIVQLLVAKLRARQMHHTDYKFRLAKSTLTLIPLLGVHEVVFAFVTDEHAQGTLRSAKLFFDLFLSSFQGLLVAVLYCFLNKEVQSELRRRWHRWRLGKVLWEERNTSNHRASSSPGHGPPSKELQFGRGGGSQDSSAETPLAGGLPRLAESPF

For `COc1ccc(C(=O)N(CC(C)(C)C)c2cccc(C)n2)c(N2CCC(c3cc4ccc([C@@H](CC(=O)O)C5CC5)cc4o3)CC2)c1` [compound 1], in the test with wild type ICR mice, the “glucose excursion in IPGTT” value is “decreases in glucose excursion” and the “insulin secretion in IPGTT” value is on record as “Dose-dependent increases in insulin secretion”. In addition, the inhibition constant Ki (in general, a dissociation constant, usually derived from enzyme kinetics or from competition with a known ligand) at hGLUCR is more than 10 µM.
